Measured values published in US20130274237A1, “COMPOSITION INCLUDING CHLOROPHYLL A AS AN ACTIVE INGREDIENT FOR PREVENTING AND TREATING TH2-MEDIATED IMMUNOLOGICAL DISEASES” (GWANGJU INSTITUTE OF SCIENCE AND TECHNOLOGY, priority 2009, published 2013).
Values joined by “and” are separate entries in the source; they are usually repeats but may differ in a detail not shown here. Identical values can stand only once.

Experiments:
[1] = test system: degranulation of mast cells; experiment: Histology: mast cells per degranulation level; assay type: in vivo, NC/Nga mice; conditions: for No. of Mast Cells per value of degranulation level 0, mean / No. of Mast Cells per value of degranulation level 2, mean: mean of 5 mice; for No. of Mast Cells per value of degranulation level 2 / No. of Mast Cells per value of degranulation level 2, mean: serious level of degranulation
Description: (§1) 4-7) Histology (H & E, Toluidine Blue Stain) • d. Skin tissues were fixed in 10% formalin for at least 24 hours, prepared into paraffin blocks, cut into pieces in the size of 4 μm, dyed with hematoxylin & eosin (Sigma, USA), and then dyed again with toluidine blue (Sigma, USA) for more accurate identification of inflammatory cells.

[2] = test system: skin tissues of atopy-induced NC/Nga mice; experiment: Histology: H & E biopsy score of skin; assay type: in vivo; conditions: for H & E biopsy score: group mean, acanthosis, hyperkeratosis, neutrophil infiltration, fibroblast hyperplasia, dermis each scored 1 to 3
Description: as §1
The evaluation standard for biopsy was calculated in an averaged score scale of 1 to 3 based on the status of acanthosis, hyperkeratosis, neutrophil infiltration, fibroblast hyperplasia, dermis, etc. […] Among them, a group treated with 1 mg/kg of chlorophyll a as a test drug was evaluated as being of significance (FIGS. 18-23).

[3] = Body weight of atopy-induced NC/Nga mice; conditions: DNCB atopy-induced NC/Nga mice
Description: 20 fourteen-week old female NC/Nga mice (Central Lab. Animal Inc., Korea) with a body weight of about 20 g were used. The experimental animals were allowed to adapt for 7 days in the animal rooms before the experiment, and observed for general symptoms.
A test solution prepared by dissolving a mixture consisting of acetone and olive oil in 3:1 ratio in dinitrochlorobenzene (DNCB) to a concentration of about 1% to about 0.2% was coated on the skin of the NC/Nga mice to induce atopic dermatitis.
Body weight was measured twice from the time when the test material was administered.

C=Cc1c(C)c2cc3nc(c4c5[n-]c(cc6nc(cc1[n-]2)C(C)=C6CC)c(C)c5C(=O)[C@@H]4C(=O)OC)[C@@H](CCC(=O)OC/C=C(\C)CCC[C@H](C)CCC[C@H](C)CCCC(C)C)[C@@H]3C.[Mg+2] [chlorophyll a]
No. of Mast Cells per value of degranulation level 0, mean ([1]; normal degranulation, 1 mg/kg oral daily, 1 mg/kg): 4.64±1.22 and 4.64 | No. of Mast Cells per value of degranulation level 0 ([1]; normal degranulation, 5 mg/kg oral daily, individual mouse, 5 mg/kg): 5.98 and 6.31 and 4.51 and 7.41 and 3.81 | No. of Mast Cells per value of degranulation level 0, mean ([1]; normal degranulation, 5 mg/kg oral daily): 5.60 | No. of Mast Cells per value of degranulation level 0, mean ([1]; normal degranulation, 5 mg/kg oral daily, 5 mg/kg): 5.60±1.44 | No. of Mast Cells per value of degranulation level 2 ([1]; 1 mg/kg oral daily, individual mouse, 1 mg/kg): 1.56 and 0.62 and 0.66 and 1.25 and 2.38 | No. of Mast Cells per value of degranulation level 2, mean ([1]; 1 mg/kg oral daily, 1 mg/kg): 1.30±0.73 and 1.30 | No. of Mast Cells per value of degranulation level 2 ([1]; 5 mg/kg oral daily, individual mouse, 5 mg/kg): 0.44 and 1.44 and 5.45 and 1.82 and 3.00 | No. of Mast Cells per value of degranulation level 2, mean ([1]; 5 mg/kg oral daily, 5 mg/kg): 2.43±1.92 and 2.43 | H & E biopsy score ([2]; 1 mg/kg oral daily): 4.6±0.55 | tissue H&E reading: improvement in atopy symptom ([2]; 1 mg/kg oral daily, in words): the most improvement | H & E biopsy score ([2]; 5 mg/kg oral daily): 5±1.58 | body weight ([3]; 1 mg/kg oral daily, day 1, individual mouse, 1 mg/kg): 25.6 g and 27.4 g and 24.5 g and 24 g and 26.1 g | body weight, group mean ([3]; 1 mg/kg oral daily, day 1, mean of 5 mice): 25.52 g | body weight ([3]; 1 mg/kg oral daily, day 3, individual mouse, 1 mg/kg): 25.7 g and 27.6 g and 25.8 g and 25.5 g and 27.1 g | body weight, group mean ([3]; 1 mg/kg oral daily, day 3, mean of 5 mice): 26.34 g | body weight ([3]; 1 mg/kg oral daily, day 5, individual mouse, 1 mg/kg): 27.3 g and 28.2 g and 26.5 g and 26 g and 27.8 g | body weight, group mean ([3]; 1 mg/kg oral daily, day 5, mean of 5 mice): 27.16 g | body weight ([3]; 1 mg/kg oral daily, day 7, individual mouse, 1 mg/kg): 27.3 g and 27.6 g and 26.5 g and 24.7 g and 28.6 g | body weight, group mean ([3]; 1 mg/kg oral daily, day 7, mean of 5 mice): 26.94 g | body weight ([3]; 1 mg/kg oral daily, day 9, individual mouse, 1 mg/kg): 28.4 g and 27.4 g and 25.8 g and 25.7 g and 27.7 g | body weight, group mean ([3]; 1 mg/kg oral daily, day 9, mean of 5 mice): 27 g | body weight, group mean ([3]; 1 mg/kg oral daily, day 11 (time of sacrifice), mean of 5 mice, 1 mg/kg): 28.36 ± 1.045 g and 28.36 g | body weight ([3]; 1 mg/kg oral daily, day 11, individual mouse, 1 mg/kg): 29 g and 28.9 g and 27.5 g and 27 g and 29.4 g | body weight ([3]; 5 mg/kg oral daily, day 1, individual mouse, 5 mg/kg): 24.9 g and 28.6 g and 27.5 g (2×) and 27.1 g | body weight, group mean ([3]; 5 mg/kg oral daily, day 1, mean of 5 mice): 27.12 g | body weight ([3]; 5 mg/kg oral daily, day 3, individual mouse, 5 mg/kg): 24.8 g and 29.6 g and 27.1 g and 29 g and 27.4 g | body weight, group mean ([3]; 5 mg/kg oral daily, day 3, mean of 5 mice): 27.58 g | body weight ([3]; 5 mg/kg oral daily, day 5, individual mouse, 5 mg/kg): 25.9 g and 30.8 g and 26.7 g and 29.3 g and 28 g | body weight, group mean ([3]; 5 mg/kg oral daily, day 5, mean of 5 mice): 28.14 g | body weight ([3]; 5 mg/kg oral daily, day 7, individual mouse, 5 mg/kg): 25.9 g and 30.6 g and 27.2 g and 30.2 g and 28.2 g | body weight, group mean ([3]; 5 mg/kg oral daily, day 7, mean of 5 mice): 28.42 g | body weight ([3]; 5 mg/kg oral daily, day 9, individual mouse, 5 mg/kg): 25.3 g and 30.6 g and 27.2 g and 29 g and 27 g | body weight, group mean ([3]; 5 mg/kg oral daily, day 9, mean of 5 mice): 27.82 g | body weight, group mean ([3]; 5 mg/kg oral daily, day 11 (time of sacrifice), mean of 5 mice, 5 mg/kg): 28.86 ± 2.033 g and 28.86 g | body weight ([3]; 5 mg/kg oral daily, day 11, individual mouse, 5 mg/kg): 25.7 g and 31.3 g and 29.2 g and 29.5 g and 28.6 g | change in body weight by the administration ([3]; oral administration, in words): no decrease
